In patent US20160158200A1, “Combinations of Hepatitis C Virus Inhibitors” (priority 2013, published 2016):

test system: HCV genotype-1a variant with glutamine 30 changed to glutamate in the NS5A protein; type: cell-based; settings: test compound titrated with BMS-790052 fixed at 200 nM; genotype 1a Q30E replicon
Summary of the method: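 Synergy was assessed by combining several fixed amounts of an NS5A-targeting compound with a titration of the second compound of interest.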

Compound | Fold-Synergistic 1a (Q30E) [fold]
COC(c1ccccc1)C1(C(=O)N[C@H](c2nc(-c3ccc(-c4ccc(-c5c[nH]c([C@@H](NC(=O)C6(C(OC)c7ccccc7)CC6)C(C)(C)C)n5)cc4)cc3)c[nH]2)C(C)(C)C)CC1 (single isomer, unassigned) [Compound N-137B] | >100
COc1ccc(C2(C(=O)N[C@H](c3ncc(-c4ccc(-c5ccc(-c6cnc([C@@H](NC(=O)C7(c8ccc(OC)cc8)CCCC7)C(C)C)[nH]6)cc5)cc4)[nH]3)C(C)C)CCCC2)cc1 [Compound S-24] | >100
CC(C)(C)OC(=O)NC1(C(=O)N[C@H](c2nc(-c3ccc(-c4ccc(-c5c[nH]c([C@@H](NC(=O)C6(NC(=O)OC(C)(C)C)CC6(F)F)C(C)(C)C)n5)cc4)cc3)c[nH]2)C(C)(C)C)CC1(F)F (single isomer, unassigned) [Compound W-15] | >100
CC(C)(F)C(NC(=O)C1CCC(F)(F)CC1)c1nc(-c2ccc(-c3ccc(-c4c[nH]c(C(NC(=O)C5CCC(F)(F)CC5)C(C)(C)F)n4)cc3)cc2)c[nH]1 (single isomer, unassigned) [Compound N-106C] | >100
CC(C)[C@H](N[S+]([O-])C(C)(C)C)c1ncc(-c2ccc(-c3ccc(-c4cnc([C@@H](N[S+]([O-])C(C)(C)C)C(C)C)[nH]4)cc3)cc2)[nH]1 (stereo partly shown) [Compound Y-61] | <10
CC(C)(C)C(=O)N[C@H](c1ncc(-c2ccc(-c3ccc(-c4cnc([C@@H](NC(=O)C(C)(C)C)C5(C)CC5)[nH]4)cc3)cc2)[nH]1)C1(C)CC1 [Compound Y-35] | >100
CC(C)[C@H](NC(=O)c1ccco1)c1ncc(-c2ccc(-c3ccc(-c4cnc([C@@H](NC(=O)c5ccco5)C(C)C)[nH]4)cc3)cc2)[nH]1 [Compound S-8] | >100
CC(C)(C)[C@H](NC(=O)c1cccc(B(O)O)c1)c1nc(-c2ccc(-c3ccc(-c4cnc([C@@H](NC(=O)c5cccc(B(O)O)c5)C(C)(C)C)[nH]4)cc3)cc2)c[nH]1 [Compound B-178] | >10
COC(C)(C)C(=O)N[C@H](c1nc(-c2ccc(-c3ccc(-c4c[nH]c([C@@H](NC(=O)C(C)(C)OC)C(C)C)n4)cn3)cc2)c[nH]1)C(C)C.O=C(O)C(F)(F)F [Compound N-102] | >100
CC(C)(C)[C@H](NC(=O)CC1CC(F)(F)C1)c1nc(-c2ccc(-c3ccc(-c4c[nH]c([C@@H](NC(=O)CC5CC(F)(F)C5)C(C)(C)C)n4)cc3)cc2)c[nH]1 [Compound N-120] | >100
CC(C)[C@H](NC(=O)C(C)(C)C(O)C1CC(F)(F)C1)c1nc(-c2ccc(-c3ccc(-c4c[nH]c([C@@H](NC(=O)C(C)(C)C(O)C5CC(F)(F)C5)C(C)C)n4)cc3)cc2)c[nH]1 (single isomer, unassigned) [Compound N-145C] | >100
CC1([C@H](NC(=O)C2(CO)CC(F)(F)C2)c2nc(-c3ccc(-c4ccc(-c5c[nH]c([C@@H](NC(=O)C6(CO)CC(F)(F)C6)C6(C)CC6)n5)cc4)cc3)c[nH]2)CC1 [Compound N-155] | >100
COc1ccc2cc([C@@H](C)C(=O)N[C@H](c3nc(-c4ccc(-c5ccc(-c6c[nH]c([C@@H](NC(=O)[C@H](C)c7ccc8cc(OC)ccc8c7)C(C)(C)C)n6)cc5)cc4)c[nH]3)C(C)(C)C)ccc2c1 [Compound S-254] | >100
CC(C)(C)[C@H](NC(=O)C1CCC(C(F)F)CC1)c1nc(-c2ccc(-c3ccc(-c4c[nH]c([C@@H](NC(=O)C5CCC(C(F)F)CC5)C(C)(C)C)n4)cc3)cc2)c[nH]1 (stereo partly shown) [Compound Y-71] | >100
CC(C)[C@H](NC(=O)c1cccc(Cl)c1)c1ncc(-c2ccc(-c3ccc(-c4cnc([C@@H](NC(=O)C(C)(C)C)C(C)C)[nH]4)cc3)cc2)[nH]1 [Compound Y-54] | >100
CC(C)[C@H](NC(=O)C(C)(C)OCC(F)F)c1nc(-c2ccc(-c3ccc(-c4c[nH]c([C@@H](NC(=O)C(C)(C)OCC(F)F)C(C)C)n4)cc3F)cc2)c[nH]1.O=C(O)C(F)(F)F [Compound N-98] | >100
CC(C)(C)C(NC(=O)C1(O)CCC1)c1nc(-c2ccc(-c3ccc(-c4c[nH]c(C(NC(=O)C5(O)CCC5)C(C)(C)C)n4)cc3)cc2)c[nH]1 [Compound L-71] | >100
CC(C)(C)OC(=O)NC1CCCCC1C(=O)N[C@H](c1nc(-c2ccc(-c3ccc(-c4c[nH]c([C@@H](NC(=O)C5CCCCC5NC(=O)OC(C)(C)C)C(C)(C)C)n4)cc3)cc2)c[nH]1)C(C)(C)C (single isomer, unassigned) [Compound W-23A] | >100
COC(=O)N[C@H](Cc1ccccc1)C(=O)N[C@H](c1ncc(-c2ccc(-c3ccc(-c4cnc([C@@H](NC(=O)[C@@H](Cc5ccccc5)NC(=O)OC)C(C)C)[nH]4)cc3)cc2)[nH]1)C(C)C [Compound P-106] | >100
CC(C)(C)[C@H](NC(=O)C(C)(C)C1(O)CCC(F)(F)CC1)c1ncc(-c2ccc(-c3ccc4nc([C@@H](NC(=O)C(C)(C)C5(O)CCC(F)(F)CC5)C(C)(C)C)[nH]c4c3)cc2)[nH]1 [Compound B58A] | >100

Compound | Fold-Synergistic 1a (Q30E) [fold]
CC(C)(C)[C@H](NC(=O)c1ccccc1F)c1nc(-c2ccc(-c3ccc(-c4c[nH]c([C@@H](NC(=O)c5ccccc5F)C(C)(C)C)n4)c(F)c3)cc2)c[nH]1.O=C(O)C(F)(F)F [Compound N-95] | >100
COc1ccc(C(=O)C(=O)N[C@H](c2ncc(-c3ccc(-c4ccc(-c5cnc([C@@H](NC(=O)C(=O)c6ccc(OC)c(Cl)c6)C(C)C)[nH]5)cc4)cc3)[nH]2)C(C)C)cc1Cl [Compound P-113] | >100
Cc1ccc(C(=O)N[C@H](c2nc(-c3ccc(-c4ccc(-c5c[nH]c([C@@H](NC(=O)c6ccc(C)s6)C(C)(C)C)n5)cc4)cc3)c[nH]2)C(C)(C)C)s1 [Compound N-64] | >100
CC(C)(C)OC(=O)N1C(C(=O)NC(c2nc(-c3ccc(-c4ccc(-c5c[nH]c(C(NC(=O)C6COC(C)(C)N6C(=O)OC(C)(C)C)C(C)(C)C)n5)cc4)cc3)c[nH]2)C(C)(C)C)COC1(C)C [Compound L-55] | >100
CCCOC(=O)N[C@@H](C(=O)N[C@H](c1ncc(-c2ccc(-c3ccc(-c4cnc([C@@H](NC(=O)[C@H](NC(=O)OCCC)C(C)C)C(C)C)[nH]4)cc3)cc2)[nH]1)C(C)C)C(C)C [Compound S-248] | >100
CC(C)[C@H](NC(=O)N(C(C)C)C(C)C)c1nc(-c2ccc(-c3ccc(-c4c[nH]c([C@@H](NC(=O)N(C(C)C)C(C)C)C(C)C)n4)cc3)cc2)c[nH]1 [Compound S-230] | >100
CC(C)(C)[C@H](NC(=O)C1C(C)(C)C1(C)C)c1nc(-c2ccc(-c3ccc(-c4c[nH]c([C@@H](NC(=O)C5C(C)(C)C5(C)C)C(C)(C)C)n4)cc3)cc2)c[nH]1 [Compound N-55] | >100
CC1(C)CCN(C(=O)C(=O)N2CCC(F)(F)CC2)C1c1nc(-c2ccc(-c3ccc(-c4c[nH]c(C5N(C(=O)C(=O)N6CCC(F)(F)CC6)CCC5(C)C)n4)cc3)cc2)c[nH]1 (stereo not shown) [Compound W-218] | >10
CC(C)(C)C(NC(=O)C1C2COCC21)c1nc(-c2ccc(-c3ccc(-c4c[nH]c(C(NC(=O)C5C6COCC65)C(C)(C)C)n4)cc3)cc2)c[nH]1 [Compound L-67] | >100
CC(C)[C@H](NC(=O)C12CCC(C1)C(C)(C)C2O)c1nc(-c2ccc(-c3ccc(-c4c[nH]c([C@@H](NC(=O)C56CCC(C5)C(C)(C)C6O)C(C)C)n4)cc3)cc2)c[nH]1 (single isomer, unassigned) [Compound Y-115] | >100
O=C(c1cncnc1)N1CCC[C@H]1c1ncc(-c2ccc(-c3ccc(-c4cnc([C@@H]5CCCN5C(=O)c5cncnc5)[nH]4)cc3)cc2)[nH]1 [Compound S-195] | <10
CC(C)[C@H](NC(=O)OC(C)(C)C)c1ncc(-c2ccc(-c3ccc(-c4cnc([C@@H](NC(=O)C(C)(C)C)C(C)C)[nH]4)cc3)cc2)[nH]1 [Compound Y-51] | >100
CC(C)(C)[C@H](NC(=O)c1ccccc1O)c1nc(-c2ccc(-c3ccc(-c4c[nH]c([C@@H](NC(=O)c5ccccc5O)C(C)(C)C)n4)cc3)cc2)c[nH]1 [Compound Y-72] | >100
CC(C)[C@H](NC(=O)CC1CCCC1)c1ncc(-c2ccc(-c3ccc(-c4cnc([C@@H](NC(=O)CC5CCCC5)C(C)C)[nH]4)cc3)cc2)[nH]1 [Compound S-3] | >100
CC(C)[C@H](NC(=O)C(C)(C)C)c1nc(-c2ccc3c(c2)Cc2cc(-c4c[nH]c([C@@H](NC(=O)C(C)(C)C)C(C)C)n4)ccc2-3)c[nH]1 [Compound N-68] | >100
CC(C)(C)[C@H](NC(=O)C1CCC(F)(F)CC1)c1ncc(C#Cc2ccc3cc(C#Cc4cnc([C@@H](NC(=O)C5CCC(F)(F)CC5)C(C)(C)C)[nH]4)ccc3c2)[nH]1 [Compound B65] | >100
CC(C)(C)[C@H](NC(=O)C1(C(F)(F)F)CCCC1)c1nc(-c2ccc(-c3ccc(-c4c[nH]c([C@@H](NC(=O)C5(C(F)(F)F)CCCC5)C(C)(C)C)n4)cc3)cc2)c[nH]1 [Compound N-52] | >100
COc1ccccc1C(O)C(C)(C)C(=O)N[C@H](c1nc(-c2ccc(-c3ccc(-c4c[nH]c([C@@H](NC(=O)C(C)(C)C(O)c5ccccc5OC)C(C)(C)C)n4)cc3)cc2)c[nH]1)C(C)(C)C (single isomer, unassigned) [Compound N-125C] | >100
CC(C)(C)C(NC(=O)C1CCCCN1CC(F)(F)F)c1nc(-c2ccc(-c3ccc(-c4c[nH]c(C(NC(=O)C5CCCCN5CC(F)(F)F)C(C)(C)C)n4)cc3)cc2)c[nH]1 [Compound L-51] | >100
CC(C)(C)[C@H](NC(=O)C(=O)c1ccco1)c1nc(-c2ccc(-c3ccc(-c4c[nH]c([C@@H](NC(=O)C(=O)c5ccco5)C(C)(C)C)n4)cc3)cc2)c[nH]1 [Compound W-20] | >100
